ChEMBL document CHEMBL1201862, “PubChem BioAssay data set” (2004)
Calls of active or inactive are those of the source.

Columns and labels:
[1] = intracellular Trypanosoma cruzi inhibitors in host cells – cell-based, plate reader, cherry-pick samples, set 3, dose response (AID 651818); type: functional;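 also: compounds incubated with infected cells for about four days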
[2] = molecular target: T1, High affinity choline transporter 1 (Homo sapiens, UniProt Q9GZV3); experiment: human choline transporter blockers, potency – cell-based, 5-point CRC, membrane potential dye, dose response (AID 504840); type: functional
T1 sequence (Q9GZV3 whole entry): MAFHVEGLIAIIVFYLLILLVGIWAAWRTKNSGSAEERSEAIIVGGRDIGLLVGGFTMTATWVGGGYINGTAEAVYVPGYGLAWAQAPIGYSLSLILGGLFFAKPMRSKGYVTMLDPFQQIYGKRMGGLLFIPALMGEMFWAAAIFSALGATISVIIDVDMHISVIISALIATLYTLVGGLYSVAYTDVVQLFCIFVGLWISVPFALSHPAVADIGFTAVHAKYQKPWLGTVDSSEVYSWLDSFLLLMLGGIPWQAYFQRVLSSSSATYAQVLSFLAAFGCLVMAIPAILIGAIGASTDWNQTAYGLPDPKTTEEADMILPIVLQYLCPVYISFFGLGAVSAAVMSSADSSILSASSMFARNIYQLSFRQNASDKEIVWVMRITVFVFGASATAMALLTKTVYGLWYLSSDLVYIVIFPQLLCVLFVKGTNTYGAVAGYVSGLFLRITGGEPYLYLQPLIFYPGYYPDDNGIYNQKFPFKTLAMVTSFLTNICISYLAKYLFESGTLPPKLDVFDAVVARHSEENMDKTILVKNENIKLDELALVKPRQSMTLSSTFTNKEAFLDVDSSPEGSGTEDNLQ

Leucine aminopeptidase = molecular target: T2, Leucine aminopeptidase (Plasmodium falciparum 3D7, UniProt Q8IL11); experiment: P. falciparum M17LAP inhibitors, primary screen, biochemical, fluorogenic H-Leu-NHMec substrate, 1536-well (AID 1619); type: functional
T2 sequence (Q8IL11 whole entry): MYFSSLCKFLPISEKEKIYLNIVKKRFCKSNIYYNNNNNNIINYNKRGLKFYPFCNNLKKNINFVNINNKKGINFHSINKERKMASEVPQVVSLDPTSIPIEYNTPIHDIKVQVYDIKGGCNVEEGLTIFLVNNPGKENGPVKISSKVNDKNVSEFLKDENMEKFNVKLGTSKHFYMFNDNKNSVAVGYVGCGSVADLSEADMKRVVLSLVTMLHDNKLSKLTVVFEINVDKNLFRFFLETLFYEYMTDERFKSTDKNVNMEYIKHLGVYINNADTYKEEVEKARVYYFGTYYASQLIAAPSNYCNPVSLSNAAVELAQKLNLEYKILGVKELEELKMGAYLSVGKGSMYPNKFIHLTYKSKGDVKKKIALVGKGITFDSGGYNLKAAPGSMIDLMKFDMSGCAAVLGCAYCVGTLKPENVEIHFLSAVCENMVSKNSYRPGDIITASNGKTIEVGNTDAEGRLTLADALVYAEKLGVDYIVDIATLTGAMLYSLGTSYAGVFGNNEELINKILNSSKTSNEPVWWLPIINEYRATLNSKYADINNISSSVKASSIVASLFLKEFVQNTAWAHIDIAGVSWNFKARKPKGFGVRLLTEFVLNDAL

[3] = molecular target: T3, Polyadenylate-binding protein 1 (Homo sapiens, UniProt P11940); experiment: MLLE binding blockers, Cy5 peptide tracer – biochemical, fluorescence polarization, Cy5-PAM2 peptide, secondary, miRNA deadenylation inhibitor project, dose response (AID 602260); type: functional; conditions: read-out: IC50_Mean
[4] = molecular target: T3, Polyadenylate-binding protein 1; experiment: MLLE domain peptide-binding blockers, IC50 – biochemical, fluorescence polarization, FITC-PAM2 peptide, dose response (AID 602259); type: functional; conditions: read-out: IC50_Mean
[5] = molecular target: Induced myeloid leukemia cell differentiation protein Mcl-1 (Homo sapiens, UniProt Q07820); type: functional
[6] = molecular target: T4, Small ubiquitin-related modifier 1 (Homo sapiens, UniProt P63165); experiment: SUMO1 protein interaction blockers, potency – biochemical, fluorescence polarization, uHTS hits, dose response (AID 624382); type: functional; conditions: read-out: IC50_Mean
[7] = molecular target: T4, Small ubiquitin-related modifier 1; experiment: SUMO1 protein-protein binding blockers, potency – biochemical, FRET, dose response (AID 624383); type: functional; conditions: read-out: IC50_Mean
[8] = molecular target: Mitogen-activated protein kinase 10 (Homo sapiens, UniProt P53779); experiment: Dose response biochemical screening assay for inhibitors of c-Jun N-Terminal Kinase 3 (JNK3). [Related pubchem assays: 746 ]
[9] = molecular target: 26S proteasome non-ATPase regulatory subunit 14 (Homo sapiens, UniProt O00487); experiment: inhibition of proteasome subunit RPN11 – biochemical, fluorescence polarization, uHTS hits, confirmation (AID 602368); type: functional
[10] = molecular target: 72 kDa type IV collagenase (Homo sapiens, UniProt P08253); experiment: Dose Response validation of uHTS RPN11 inhibitor hits using a MMP-2 Fluorescence assay.; type: functional
Prothrombin = Prothrombin (Bos taurus, UniProt P00735); experiment: thrombin protease inhibitors – biochemical, fluorescence polarization, uHTS hits, dose response (AID 602369); type: functional
Large T antigen = Large T antigen (Simian virus 40, UniProt P03070); type: functional, Betapolyomavirus macacae;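 also: Confirmatory-stage PubChem screen for compounds that inhibit SV40 T antigen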
Paired box protein Pax-8 = Paired box protein Pax-8 (Homo sapiens, UniProt Q06710); experiment: PAX8 transcriptional activity inhibition in RMG-I – RMG-I cells, luciferase, cherry-pick, dose response (AID 687027); type: functional, cell-based;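 also: luciferase reporter driven by Pax8 target thyroperoxidase promoter measured by SteadyGlo luminescence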
[11] = OVCAR-3 cell viability loss – plate reader, dry powder samples, PAX8 inhibitor project, dose response (AID 743044); type: functional, cell-based
[12] = IGROV1 cell killing – plate reader, dry powder samples, PAX8 inhibitor project, dose response (AID 743043); type: functional, cell-based; conditions: IGROV-1
[13] = OVCAR8 cell viability loss – plate reader, dry powder samples, PAX8 project, dose response (AID 743197); type: functional, cell-based; conditions: OVCAR-8
[14] = molecular target: T5, Probable nicotinate-nucleotide adenylyltransferase (Staphylococcus aureus (strain N315), UniProt P65502); type: functional, Staphylococcus aureus subsp. aureus N315;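 as to IC50 Mean: confirmatory dose-response retesting of NadD inhibitor hits first found in an ultra-high-throughput screen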
[15] = molecular target: T5, Probable nicotinate-nucleotide adenylyltransferase; type: functional, Staphylococcus aureus subsp. aureus N315; conditions: read-out: IC50_Mean
[16] = molecular target: Eukaryotic translation initiation factor 4E (Mus musculus, UniProt P63073); experiment: blockers of eIF4G binding by eIF4E – biochemical, TR-FRET, dose response (AID 855); type: functional;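 also: potency for disrupting eIF4E binding to eIF4GI seen as loss of FRET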
[17] = growth inhibition of yeast DHODH-expressing 3D7 parasites – SYBR Green, dry powder samples, dose response (AID 1159570); type: functional, cell-based;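 also: parasite growth measured after 72 hours of compound exposure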
[18] = P. falciparum Dd2 growth inhibitors, dose response, SYBR Green, cherry-picked samples (AID 1159567); type: functional, cell-based
[19] = Dd2 malaria parasite growth inhibition potency – SYBR Green, dry powder samples, dose response (AID 1159566); type: functional, cell-based;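 also: potency for growth inhibition with lower SYBR green DNA signal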
[20] = growth inhibition of PfATP4-mutant resistant parasites – NITD609-resistant line, SYBR Green, dry powder, dose response (AID 1159571); type: functional, cell-based;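 also: parasites synchronized at ring stage by sorbitol before testing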
[21] = THP-1 cell cytotoxicity, dose response, cytotoxicity control for non-replicating M. tuberculosis project (AID 489025); type: functional
cells = type: functional
[22] = molecular target: FAD-linked sulfhydryl oxidase ALR (Homo sapiens, UniProt P55789); experiment: ALR-catalysed DTT oxidation blockers – biochemical, H2O2 detection, luminescence, cherry-pick, dose response (AID 493248)
FAD-linked sulfhydryl oxidase ALR, sequence (P55789 whole entry): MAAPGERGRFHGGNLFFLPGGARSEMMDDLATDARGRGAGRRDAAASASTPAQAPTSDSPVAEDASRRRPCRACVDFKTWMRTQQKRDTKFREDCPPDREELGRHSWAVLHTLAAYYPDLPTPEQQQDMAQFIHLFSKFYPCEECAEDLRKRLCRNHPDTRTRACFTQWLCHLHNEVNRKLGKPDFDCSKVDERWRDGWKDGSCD

Mitogen-activated protein kinase 10, sequence (P53779 whole entry): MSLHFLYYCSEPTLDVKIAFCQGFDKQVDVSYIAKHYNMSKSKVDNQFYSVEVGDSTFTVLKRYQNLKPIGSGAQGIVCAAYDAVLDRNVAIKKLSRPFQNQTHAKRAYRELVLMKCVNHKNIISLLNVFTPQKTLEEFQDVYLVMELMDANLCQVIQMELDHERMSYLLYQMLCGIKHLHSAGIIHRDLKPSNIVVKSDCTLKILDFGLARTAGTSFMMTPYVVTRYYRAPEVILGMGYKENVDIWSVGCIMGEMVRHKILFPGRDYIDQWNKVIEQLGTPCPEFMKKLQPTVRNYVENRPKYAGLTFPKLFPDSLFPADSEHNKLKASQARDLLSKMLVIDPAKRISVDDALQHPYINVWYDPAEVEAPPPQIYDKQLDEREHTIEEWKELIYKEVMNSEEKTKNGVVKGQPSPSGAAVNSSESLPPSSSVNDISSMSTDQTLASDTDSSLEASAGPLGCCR
Induced myeloid leukemia cell differentiation protein Mcl-1, sequence (Q07820 whole entry): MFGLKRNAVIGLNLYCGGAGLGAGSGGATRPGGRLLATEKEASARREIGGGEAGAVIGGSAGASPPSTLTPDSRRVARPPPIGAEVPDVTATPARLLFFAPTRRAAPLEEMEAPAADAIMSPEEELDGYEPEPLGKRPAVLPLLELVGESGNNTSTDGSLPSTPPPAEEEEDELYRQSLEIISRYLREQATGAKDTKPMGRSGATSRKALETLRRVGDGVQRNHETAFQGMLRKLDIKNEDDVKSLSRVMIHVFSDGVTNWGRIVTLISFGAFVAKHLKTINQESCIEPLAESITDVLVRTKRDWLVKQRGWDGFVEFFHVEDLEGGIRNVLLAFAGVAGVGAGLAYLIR
T4 sequence (P63165 whole entry): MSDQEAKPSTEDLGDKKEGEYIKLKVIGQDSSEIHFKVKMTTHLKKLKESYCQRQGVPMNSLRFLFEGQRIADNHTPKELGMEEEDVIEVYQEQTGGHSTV
Paired box protein Pax-8, sequence (Q06710 whole entry): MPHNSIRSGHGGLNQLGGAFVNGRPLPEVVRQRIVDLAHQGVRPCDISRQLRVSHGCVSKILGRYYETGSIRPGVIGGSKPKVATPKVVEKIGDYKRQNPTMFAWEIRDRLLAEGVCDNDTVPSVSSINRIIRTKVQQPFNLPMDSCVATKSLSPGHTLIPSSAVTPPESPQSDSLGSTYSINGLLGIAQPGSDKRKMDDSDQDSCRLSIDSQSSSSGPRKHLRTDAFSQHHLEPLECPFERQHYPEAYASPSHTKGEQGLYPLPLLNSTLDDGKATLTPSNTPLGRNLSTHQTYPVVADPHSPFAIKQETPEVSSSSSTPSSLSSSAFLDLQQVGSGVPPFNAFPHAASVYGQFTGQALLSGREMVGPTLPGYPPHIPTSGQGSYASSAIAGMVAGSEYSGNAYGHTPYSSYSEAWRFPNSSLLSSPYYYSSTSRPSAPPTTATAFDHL
T3 sequence (P11940 whole entry, the tested form may be a part): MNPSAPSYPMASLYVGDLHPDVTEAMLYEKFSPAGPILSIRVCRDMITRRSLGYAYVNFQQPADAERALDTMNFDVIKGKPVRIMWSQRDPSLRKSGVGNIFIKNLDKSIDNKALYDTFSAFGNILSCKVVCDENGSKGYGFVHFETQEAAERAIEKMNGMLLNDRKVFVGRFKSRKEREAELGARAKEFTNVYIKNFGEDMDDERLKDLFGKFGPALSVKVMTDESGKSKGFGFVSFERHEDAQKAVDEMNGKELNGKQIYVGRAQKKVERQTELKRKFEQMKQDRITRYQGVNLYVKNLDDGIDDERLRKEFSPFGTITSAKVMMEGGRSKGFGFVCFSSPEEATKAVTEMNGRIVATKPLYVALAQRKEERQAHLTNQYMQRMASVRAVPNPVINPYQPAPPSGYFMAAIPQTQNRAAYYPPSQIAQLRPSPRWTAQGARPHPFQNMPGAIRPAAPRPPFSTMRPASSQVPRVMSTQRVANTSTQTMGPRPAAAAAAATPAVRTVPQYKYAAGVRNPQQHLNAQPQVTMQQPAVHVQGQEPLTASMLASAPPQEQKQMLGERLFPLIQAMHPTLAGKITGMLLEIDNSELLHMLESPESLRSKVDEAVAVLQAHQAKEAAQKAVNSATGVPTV
26S proteasome non-ATPase regulatory subunit 14, sequence (O00487 whole entry): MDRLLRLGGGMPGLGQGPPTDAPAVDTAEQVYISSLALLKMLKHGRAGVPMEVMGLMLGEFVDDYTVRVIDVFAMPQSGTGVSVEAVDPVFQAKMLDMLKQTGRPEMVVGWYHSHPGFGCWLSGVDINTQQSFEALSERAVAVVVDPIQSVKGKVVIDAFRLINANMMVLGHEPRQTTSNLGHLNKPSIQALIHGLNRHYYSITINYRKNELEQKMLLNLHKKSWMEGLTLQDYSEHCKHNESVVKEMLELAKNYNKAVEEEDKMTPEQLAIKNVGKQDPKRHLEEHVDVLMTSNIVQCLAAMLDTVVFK
T5 sequence (P65502 whole entry): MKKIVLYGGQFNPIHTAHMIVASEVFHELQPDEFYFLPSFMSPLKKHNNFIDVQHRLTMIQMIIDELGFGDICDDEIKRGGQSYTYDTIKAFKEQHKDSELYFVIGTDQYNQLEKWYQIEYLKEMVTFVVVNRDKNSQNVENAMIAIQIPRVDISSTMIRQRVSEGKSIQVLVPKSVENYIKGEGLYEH
Large T antigen, sequence (P03070 whole entry): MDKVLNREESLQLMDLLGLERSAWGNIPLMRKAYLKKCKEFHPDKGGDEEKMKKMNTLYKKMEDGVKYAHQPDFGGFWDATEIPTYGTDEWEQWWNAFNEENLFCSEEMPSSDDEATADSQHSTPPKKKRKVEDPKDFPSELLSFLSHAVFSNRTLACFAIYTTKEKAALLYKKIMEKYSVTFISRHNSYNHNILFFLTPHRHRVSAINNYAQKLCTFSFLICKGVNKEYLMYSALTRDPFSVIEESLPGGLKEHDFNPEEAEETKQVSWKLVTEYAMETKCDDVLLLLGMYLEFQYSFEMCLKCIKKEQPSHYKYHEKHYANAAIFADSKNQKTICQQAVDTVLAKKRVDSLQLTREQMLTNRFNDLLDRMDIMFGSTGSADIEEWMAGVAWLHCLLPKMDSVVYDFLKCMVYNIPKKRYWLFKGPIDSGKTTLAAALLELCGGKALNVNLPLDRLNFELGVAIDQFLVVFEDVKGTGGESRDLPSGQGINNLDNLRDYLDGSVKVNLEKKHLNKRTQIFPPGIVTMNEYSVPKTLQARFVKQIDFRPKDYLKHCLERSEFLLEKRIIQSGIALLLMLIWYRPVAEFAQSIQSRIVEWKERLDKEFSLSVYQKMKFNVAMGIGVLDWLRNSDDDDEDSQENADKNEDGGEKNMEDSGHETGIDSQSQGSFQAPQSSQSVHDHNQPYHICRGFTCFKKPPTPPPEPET
72 kDa type IV collagenase, sequence (P08253 whole entry): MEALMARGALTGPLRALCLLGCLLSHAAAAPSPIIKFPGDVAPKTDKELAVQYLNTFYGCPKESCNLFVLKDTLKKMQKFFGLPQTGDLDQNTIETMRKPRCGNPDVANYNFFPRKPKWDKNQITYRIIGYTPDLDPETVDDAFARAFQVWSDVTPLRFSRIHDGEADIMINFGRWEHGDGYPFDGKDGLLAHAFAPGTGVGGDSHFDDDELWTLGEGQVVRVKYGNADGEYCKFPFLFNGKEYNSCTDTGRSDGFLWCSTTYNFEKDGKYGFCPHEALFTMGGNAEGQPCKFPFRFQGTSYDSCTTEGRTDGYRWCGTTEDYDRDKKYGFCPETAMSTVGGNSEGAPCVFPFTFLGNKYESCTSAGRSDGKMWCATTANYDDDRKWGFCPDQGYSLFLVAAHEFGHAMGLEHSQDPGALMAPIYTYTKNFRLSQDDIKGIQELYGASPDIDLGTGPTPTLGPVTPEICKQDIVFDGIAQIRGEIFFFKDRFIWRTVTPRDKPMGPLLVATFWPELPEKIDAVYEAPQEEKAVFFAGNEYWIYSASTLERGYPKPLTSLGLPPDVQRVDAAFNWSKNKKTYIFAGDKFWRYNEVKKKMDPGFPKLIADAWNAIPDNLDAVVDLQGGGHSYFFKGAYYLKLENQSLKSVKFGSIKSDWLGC
Eukaryotic translation initiation factor 4E, sequence (P63073 whole entry): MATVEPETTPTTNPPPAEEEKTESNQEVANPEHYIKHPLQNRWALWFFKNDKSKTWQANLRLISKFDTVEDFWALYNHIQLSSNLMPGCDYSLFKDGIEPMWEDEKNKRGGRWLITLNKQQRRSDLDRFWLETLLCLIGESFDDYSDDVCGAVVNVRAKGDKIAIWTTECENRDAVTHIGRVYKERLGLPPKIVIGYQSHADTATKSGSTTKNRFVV

Compound: Cc1ccc(S(=O)(=O)Nc2ccc3c(c2)C(=O)N([C@H](C)CO)C[C@H](C)[C@H](CN(C)S(=O)(=O)c2ccc(Cl)cc2)O3)cc1
- AC50 [1]: 4.35 µM (active)

Compound: CC1CCCC(C)N1CCCNC(=O)CN1C(=O)c2cccnc2Oc2ccc(Cl)cc21 (stereo not drawn)
- IC50 [2]: 13.8 µM (active)

Compound: COc1ccc(NC(=O)CSc2nc(O)c(Cc3ccccc3)c(=O)[nH]2)cc1
- IC50 (Leucine aminopeptidase): 10.2 µM (active)
- IC50 [3]: > 66 µM (inactive)
- IC50 [4]: > 66 µM (inactive)

Compound: O=c1c(-c2c(O)cc(O)c3c(=O)cc(-c4ccc(O)cc4)oc23)c(-c2ccc(O)cc2)oc2cc(O)cc(O)c12
- IC50 [5]: 2.73 µM (not active)
- IC50 [6]: > 66.6 µM (inactive)
- IC50 [7]: 9.2 µM (active)

Compound: CCOC(=O)CCCc1sc(N)nc1-c1[nH]c(O)nc1C
- IC50 [8]: > 93.1 µM (not active)

Compound: Cc1cc(C)c(NC(=O)CCCCCNC2CCCCC2)c(C)c1
- IC50 [2]: 12.6 µM (active)

Compound: NC(=O)c1ccc2c(=O)n3c(-c4cc(Cl)c(N)c(Cl)c4)csc3nc2c1
- IC50 [6]: > 66.6 µM (inactive)
- IC50 [7]: 13.4 µM (active)

Compound: NC(=O)CC(NC(=O)c1ccc(Br)cc1)c1ccc(NC2CCCCCC2)c([N+](=O)[O-])c1 (stereo not drawn)
- IC50 [9]: 31.6 µM (active)
- IC50 [10]: > 100 µM (inactive)
- IC50 (Prothrombin): 88.5 µM (active)

Compound: COc1ccc(/C=C2/C(=O)NC(=S)N(C3CC3)C2=O)cc1CN1C(=O)c2ccccc2C1=O
- IC50 (Large T antigen): 48.5 µM (active)
- IC50 [5]: 5.54 µM (active)

Compound: COc1ccc(C=C2SC(=S)N(CCCC(=O)Nc3ccc(C(=O)O)c(O)c3)C2=O)cc1OC
- IC50 [9]: 26.2 µM (active)
- IC50 [10]: > 100 µM (inactive)
- IC50 (Prothrombin): 35.3 µM (active)

Compound: C[C@@H]1CN([C@H](C)CO)C(=O)c2cc(NS(=O)(=O)c3ccc(Cl)cc3)ccc2O[C@@H](C)CCCCO[C@@H]1CN(C)CC1CCCCC1
- AC50 (Paired box protein Pax-8): 9.23 µM (active)
- AC50 [11]: 9.37 µM (active)
- AC50 [12]: 44.4 µM (active)
- AC50 [13]: 18.8 µM (active)

Compound: C[C@@H]1CN([C@H](C)CO)C(=O)c2cccc(NC(=O)CCCCCC(=O)Nc3ccccc3N)c2O[C@@H]1CN(C)Cc1ccc(C(F)(F)F)cc1
- AC50 [1]: 2.34 µM (active)

Compound: N#CC1=C(S)N=C(N)C(c2nc(-c3ccccc3)cs2)C12CCCCC2 (stereo not drawn)
- IC50 [14]: 10.4 µM (active)
- IC50 [15]: 23.2 µM (active)

Compound: O=c1[nH][nH]c(=O)c2cc(N3CCCC3)ccc12
- IC50 (Leucine aminopeptidase): 70.7 µM (active)

Compound: CCN(CC)CCCNC(=O)CC1Sc2ccccc2NC1=O (stereo not drawn)
- IC50 [16]: > 64 µM (inactive)

Compound: C[C@@H]1CN([C@@H](C)CO)C(=O)Cc2cc(NC(=O)Nc3ccc(C(F)(F)F)cc3)ccc2O[C@@H]1CN(C)S(=O)(=O)c1ccc(F)cc1
- AC50 [1]: 6.4 µM (active)

Compound: O=C(CCn1cnc2ccccc2c1=O)Nc1ccc(S(=O)(=O)N2CCCCC2)cc1
- IC50 [8]: 38.4 µM (not active)

Compound: CC(C)(C)NC(=O)NC(=O)CN1CCC(Cc2ccccc2)CC1
- IC50 [2]: 12 µM (active)

Compound: O=C(Nc1ccccc1F)N1CCCCN2[C@@H](CO)[C@H](c3ccc(C#Cc4cccnc4)cc3)[C@@H]2C1
- AC50 [17]: 0.652 µM (active)
- AC50 [18]: 1.1 µM (active)
- AC50 [19]: 0.949 µM (active)
- AC50 [20]: 0.824 µM (active)

Compound: CCC(=O)Nc1ccc(C(=O)NNC(=O)c2cc([N+](=O)[O-])cc([N+](=O)[O-])c2)cc1
- CC50 [21]: > 40 µM (active)
- IC50 (cells): 10.3 µM (active)

Compound: CCSc1nnc(NC(=O)C2CC=CCC2C(=O)O)s1 (stereo not drawn)
- IC50 (Leucine aminopeptidase): 19.9 µM (active)

Compound: COc1ccc(CC(=O)Nc2cc(C)ccn2)cc1
- IC50 [8]: 21.4 µM (not active)

Compound: C=CCN(CC=C)S(=O)(=O)c1ccc2nc(NC(=O)C(C)C)sc2c1
- IC50 [2]: 13.8 µM (active)

Compound: Cc1cc(O)ccc1-c1cnc2ccccc2n1
- IC50 [8]: 28.1 µM (not active)

Compound: Cc1ccc(S(=O)(=O)CCC(=O)OC(C)C(=O)N2CCc3ccccc32)cc1 (stereo not drawn)
- IC50 [2]: 12.6 µM (active)

Compound: Cc1ccc(S(=O)(=O)Nc2ccc3c(c2)C(=O)N([C@@H](C)CO)C[C@H](C)[C@@H](CN(C)Cc2ccc(C(F)(F)F)cc2)OCCCC[C@H](C)O3)cc1
- AC50 (Paired box protein Pax-8): 7.48 µM (active)
- AC50 [11]: 24.1 µM (active)
- AC50 [12]: 29.5 µM (active)
- AC50 [13]: 46.9 µM (active)

Compound: COc1cc(C(=O)Nc2ccc(N(C)C)cc2)cc(OC)c1OC
- IC50 (Large T antigen): 6.34 µM (active)
- IC50 [5]: 4.78 µM (not active)
- AC50 [22]: 1.31 µM (active)

Compound: C[C@H]1CCCCO[C@H](CN(C)C(=O)Nc2ccc(C(F)(F)F)cc2)[C@@H](C)CN([C@@H](C)CO)C(=O)c2cc(NS(=O)(=O)c3ccccc3)ccc2O1
- AC50 (Paired box protein Pax-8): 6.7 µM (active)
- AC50 [12]: 40.6 µM (active)
- AC50 [13]: 45.8 µM (active)
